# Columns and labels:
# [1] = Cytotoxicity assay in CEM cells; assay type: cell-based, human; conditions: human, CEM (human lymphoblastoid) cells
# Protocol: (§1) The toxicity of the compounds was assessed in Vero, human PBM, CEM (human lymphoblastoid), MT-2, and HepG2 cells, as described previously (see Schinazi R. F., Sommadossi J.-P., Saalmann V., Cannon D. L., Xie M.-Y., Hart G. C., Smith G. A. & Hahn E. F. Antimicrob. Agents Chemother. 1990, 34, 1061-67). Cycloheximide was included as positive cytotoxic control, and untreated cells exposed to solvent were included as negative controls. The cytotoxicity IC50 was obtained from the concentration-response curve using the median effective method described previously (see Chou T.-C. & Talalay P. Adv. Enzyme Regul. 1984, 22, 27-55; Belen'kii M. S. & Schinazi R. F. Antiviral Res. 1994, 25,1-11).
# [2] = test system: CEM (human lymphoblastoid) cells; experiment: Cytotoxicity assay in CEM cells; assay type: cell-based; conditions: Homo sapiens, CCRF-CEM, 100 μM
# Protocol: as §1
# [3] = test system: HCV replicon RNA in Huh 7 Clone B cells; experiment: HCV replicon assay (replicon RNA, real time RT-PCR); assay type: cell-based; conditions: for DCt HCV / HCV (% inhibition of replicon RNA): five days
# Protocol: Following five days incubation (37° C., 5% CO2), total cellular RNA was isolated by using versaGene RNA purification kit from Gentra. Replicon RNA and an internal control (TaqMan rRNA control reagents, Applied Biosystems) were amplified in a single step multiplex Real Time RT-PCR Assay. The antiviral effectiveness of the compounds was calculated by subtracting the threshold RT-PCR cycle of the test compound from the threshold RT-PCR cycle of the no-drug control (ΔCt HCV). A ΔCt of 3.3 equals a 1-log reduction (equal to 90% less starting material) in Replicon RNA levels. The cytotoxicity of the compounds was also calculated by using the ΔCt rRNA values. (2′-Me-C) was used as the control. To determine EC90 and IC50 values^2, ΔCt: values were first converted into fraction of starting material^3 and then were used to calculate the % inhibition.
# Cathepsin G = Cathepsin G (Homo sapiens, UniProt P08311); experiment: Inhibition of human proteases: cathepsin G; assay type: biochemical
# Chymo-trypsin = experiment: Inhibition of human proteases: chymotrypsin; assay type: biochemical
# Plasmin = target: T1, Plasmin (Homo sapiens, UniProt P00747); experiment: Inhibition of human proteases: plasmin; assay type: biochemical
# T1 construct: purchased Anaspec
# Protocol: (§2) In an effort to circumvent similar toxicities, new protease inhibitors were evaluated for inhibition of a panel of important human proteases. The enzymes tested are Elastase (Neutrophil), Plasmin, Thrombin, and Cathepsin S.
# (§3) Plasmin and Thrombin(Sensolyte RH110 Plasmin Activity Assay Kit and Sensolyte Thrombin Activity Assay Kit (Anaspec)): Reactions were conducted in a sample volume of 100 μL per well in a black 96 well plate. Protocol A was followed from the kit insert where the 2× assay buffer was diluted 1:1 with deionized water. Included in each assay were a positive control (diluted enzyme and no test compound), inhibitor control (contains diluted enzyme and plasmin inhibitor; component E from the kit or thrombin inhibitor; N-α-NAPAP synthetic inhibitor) and substrate control (assay buffer and substrate). Vehicle and autofluorescence controls were also performed. Drug dilutions were added (10 μL) at 10× concentrations in assay buffer. The enzyme was added at 40 μL/well at a concentration of 0.25 μg/mL (plasmin) and 1 μg/mL (thrombin) to all wells except the substrate control. Finally, 50 μL assay buffer containing substrate was added to each well. […] The fluorescence intensity was read on the Victor 3 plate reader at Ex/Em=490 nm/520 nm. […] Results are shown as substrate control adjusted percentages of maximum absorbance, which was given by the positive control.
# Thrombin = target: T2, Thrombin (Homo sapiens, UniProt P00734); experiment: Inhibition of human proteases: thrombin; assay type: biochemical
# T2 construct: purchased Anaspec
# Protocol: as §2, §3
# [4] = target: Hepatitis C Virus NS3/4A protease Wild Type (Hepatitis C virus genotype 1b, UniProt O92972); experiment: HCV NS3/4A protease FRET assay, wild type; assay type: biochemical
# Protocol: The HCV NS3/4A protease assays were carried out using a SensoLyte® 490 HCV Protease Assay Kit using fluorescence resonance energy transfer (FRET) peptide (AnaSpec).
# [5] = target: Hepatitis C Virus NS3/4A protease R155K (Hepatitis C virus genotype 1b, UniProt O92972, R1181K); experiment: biochemical
# [6] = test system: Hepatitis C Virus NS3/4A protease R155K; experiment: biochemical; conditions: R155K vs Wild Type
# [7] = target: Hepatitis C Virus NS3/4A protease D168V (Hepatitis C virus genotype 1b, UniProt O92972, D1194V); experiment: biochemical
# [8] = test system: Hepatitis C Virus NS3/4A protease D168V; experiment: biochemical; conditions: D168V vs Wild Type
# [9] = target: Hepatitis C Virus NS3/4A protease A156S (Hepatitis C virus genotype 1b, UniProt O92972, A1182S); experiment: biochemical
# [10] = test system: Hepatitis C Virus NS3/4A protease A156S; experiment: biochemical; conditions: A156S vs Wild Type
# [11] = target: T3, Hepatitis C Virus NS3/4A protease V170A (UniProt Q9WMX2, V1196A, species not given); assay type: biochemical; conditions: V170A
# T3 construct: other: V170A; Anti-HCV protease activity EC90
# [12] = target: Hepatitis C Virus NS3/4A protease D168A (Hepatitis C virus genotype 1b, UniProt O92972, D1194A); experiment: biochemical
# [13] = test system: Hepatitis C Virus NS3/4A protease D168A; experiment: biochemical; conditions: D168A vs Wild Type
# [14] = Hepatitis C virus, HCV replicon, Huh 7 Clone B cells
# [15] = read-out: Anti-HCV protease activity EC50
# [16] = read-out: Anti-HCV protease activity EC90
smiles,measurement,setting,value
C=C[C@@H]1C[C@]1(NC(=O)[C@@H]1C[C@@H](OC(=O)N2Cc3cccc(F)c3C2)CN1C(=O)[C@@H](NC(=O)OC(C)(C)C)C(C)(C)C)C(=O)NS(=O)(=O)C1CC1 [Compound 10],IC50,[1],> 100000 nM
same,inhibition at 100 µM,[2],11%
same,DCt HCV,[3]; Conc 0.01 μM,1.16
same,HCV (% inhibition of replicon RNA),[3]; Conc 0.01 μM,54.99
same,DCt HCV,[3]; Conc 0.03 μM,3.29
same,HCV (% inhibition of replicon RNA),[3]; Conc 0.03 μM,89.67
same,DCt HCV,[3]; Conc 0.1 μM,6.05
same,HCV (% inhibition of replicon RNA),[3]; Conc 0.1 μM,98.47
same,DCt HCV,[3]; Conc 0.3 μM,8.72
same,HCV (% inhibition of replicon RNA),[3]; Conc 0.3 μM,99.76
same,EC50,[3]; [14],10 nM
same,EC90,[3]; [14],30 nM
same,IC50,Cathepsin G,> 100000 nM
same,IC50,Chymo-trypsin,> 100000 nM
same,IC50,Plasmin,> 100000 nM
same,IC50,Thrombin,> 100000 nM
same,Fold Increase of EC50,[4],1.0
same,Fold Increase of EC90,[4],1.0
same,EC50,[4]; [15],4.9 nM
same,EC90,[4]; [16],30 nM
same,EC50,[5],270 nM
same,EC90,"[5]; R155K, read-out: Anti-HCV protease activity EC90",2700 nM
same,Fold Increase of EC50,[6],55.8
same,Fold Increase of EC90,[6],91.4
same,EC50,[7],40 nM
same,EC90,"[7]; D168V, read-out: Anti-HCV protease activity EC90",630 nM
same,Fold Increase of EC50,[8],8.1
same,Fold Increase of EC90,[8],21.1
same,EC50,[9],8 nM
same,EC90,"[9]; A156S, read-out: Anti-HCV protease activity EC90",85 nM
same,Fold Increase of EC50,[10],1.6
same,Fold Increase of EC90,[10],2.9
same,EC50,[11]; [15],5.5 nM
same,EC90,[11]; [16],9.5 nM
same,EC50,[12],570 nM
same,EC90,"[12]; D168A, read-out: Anti-HCV protease activity EC90",8300 nM
same,Fold Increase of EC50,[13],115.3
same,Fold Increase of EC90,[13],278.5
